{"source": "BindingDB's records for PubMed 35777269", "about": "(University of Maryland, 2022)", "biological_target": "Protein Wnt-3a (Human, UniProt P56704)", "sequence (P56704 whole entry)": "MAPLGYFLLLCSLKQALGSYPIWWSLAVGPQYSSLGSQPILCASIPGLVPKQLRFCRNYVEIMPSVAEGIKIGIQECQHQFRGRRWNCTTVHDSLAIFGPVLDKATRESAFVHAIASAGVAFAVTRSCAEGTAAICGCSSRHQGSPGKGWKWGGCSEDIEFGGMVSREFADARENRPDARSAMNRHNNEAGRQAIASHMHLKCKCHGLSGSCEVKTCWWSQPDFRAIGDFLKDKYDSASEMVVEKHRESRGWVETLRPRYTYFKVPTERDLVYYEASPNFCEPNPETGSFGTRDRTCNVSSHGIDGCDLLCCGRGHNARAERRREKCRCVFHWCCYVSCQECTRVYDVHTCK", "assay": "Inhibition of recombinant human Wnt3a in HEK293 cells assessed as Wnt signalling by measuring reduction in relative luminescence units incubated for 24 hrs by luciferase reporter assay", "data": [{"smiles": "Cc1ccccc1-n1nnc(C(=O)Nc2ccc3ccccc3n2)c1C", "values": [{"measurement": "IC50", "result": 4.1, "unit": "nM"}]}]}
